Patent publication EP0302760A2, “Antiviral therapy for hepatitis B using 2',3'-dideoxynucleosides” (priority 1987, dated 1989)
Values after ≈ are worked out from the molar mass of the structure shown. Like-named read-outs stand apart in the source and are kept apart here.

Experiments:
[1] = tested on: duck hepatitis B virus (DHBV); experiment: Dot blot hybridization of DHBV DNA from DHBV-infected primary duck hepatocyte cultures; type: cell-based; conditions: for inhibition at 1 µg/mL / inhibition at 10 µg/mL / IC50: Duck hepatitis B virus, Hepatocyte; for inhibition at 1 µg/mL / inhibition at 10 µg/mL: 480 h; for inhibition at 1 µg/mL: read-out: PERCENTAGE INHIBITION, 1 µg/ml; for inhibition at 10 µg/mL: read-out: PERCENTAGE INHIBITION, 10 µg/ml; for IC50: DHBV-infected hepatocytes, drug from day 2, DNA extracted on day sixteen, radioactivity of dots counted, read-out: concentrations of nucleoside analog required to inhibit the virus replication by 50% (ID₅₀)
Method: Dose response curves for the purine 2′,3′-dideoxynucleosides and pyrimidine 2′,3′-dideoxynucleosides have been established by using the duck hepatitis B virus (DHBV) infected hepatocyte system. The DHBV-infected hepatocyte cultures were established as described in Example 1. Dideoxynucleoside analogs were added to the media of the hepatocyte cultures on day 2 and maintained in culture with media changes every two days. On day sixteen the DNA was extracted from the cells and the dot blots performed using the ³²P-labelled DHBV probe. The radioactivity of each "dot" was quantitated by cutting out the "dot" and counting the radioactivity. The abbreviations used in Figure 1, setting out the dose response curves, are as follows: ddA = 2′,3′-dideoxyadenosine; ddG = 2′,3′-dideoxyguanosine; ddDAPR = 2,6-diaminopurine 2′,3′-dideoxyriboside; ddI = 2′,3′-dideoxyinosine; ddT = 2′,3′-dideoxythymidine; ddC = 2′,3′-dideoxycytidine.
Newborn ducklings are infected with DHBV. After 5 to 7 days post-infection, samples of blood are taken from the ducklings and examined for DHBV DNA using dot hybridization with a specific DNA probe [Mason et al, Proc. Natl. Acad. Sci. USA 79, 3997-4001 (1982)]. The livers are removed from dot-blot positive ducklings and used to produce primary hepatocyte cultures infected with DHBV as previously described. (Tuttleman et al, J. of Virology, 58, 17-25). After 2 days in culture, antiviral agents are added to the culture media. The media are changed every 2 days and at selected times, the cells are removed and the total DNA extracted.
The DNA is spotted on nitrocellulose paper and probed with the ³²P-labelled DHBV DNA probe in accordance with the following procedure. The DNA from DHBV-infected hepatocytes was extracted and spotted onto a nitrocellular filter. The above described ³²P-nick translated - DHBV DNA (pDH-010=DHBV) probe was used. The DNA was extracted from 6-cm cell culture dishes at various times post-plating. In the VC group, cells were harvested at 2, 6, 8, 10, 14, 18 and 20 days. Duplicate samples were spotted for days 14, 18 and 20. In drug-treated groups, cells were harvested on days 8, 14 and 20. In Figure 1, this is from left to right. Drugs were added to the culture at 2 days post-plating and maintained throughout media changes every 2 days. The concentrations (µg/ml) used are indicated in Figure 1 for 2′,3′-dideoxythymidine (ddT), 2′,3′-dideoxycytidine (ddC), adenine arabinoside (ara A), 2′,3′-dideoxyadenosine (ddA) and 2′,3′-dideoxyguanosine (ddG). The total intracellular DNA was extracted from cells using the standard phenol extraction method. The cells in a 6-cm diameter Petri dish (approximately 5 x 10⁶ cells) were lysed in a lysis buffer containing 0.2% SDS, 150 mM Tris-HCl pH 8.0, 10 mM EDTA, 5 mM EGTA, and 150 mM NaCl. The cell lysate was digested with 0.5 mg/ml of pronase E (available from Sigma) at 37°C for 2 hours and deproteinized by extraction with an equal volume of phenol saturated with 20 mM Tris HCl, pH 7.5, 0.5 mM EDTA and 0.1% 8-hydroxyquinoline. Concentrated ammonium acetate [pH 7.0 (2.5 M)] was added to the aqueous phase to yield a 0.25 M ammonium acetate solution and the nucleic acids were precipitated with 2 volumes of 100% ethanol. The pellet of nucleic acid was washed with ethanol and dried. The DNA was dissolved in a solution containing 12.5 mM Tris HCl, pH 7.5, 10 mM EDTA, 30% glycerol and 0.01% bromophenol blue. One twelfth of the DNA sample was spotted onto the nitrocellulose for dot-blot analysis. ddA, ddG, ddC and ddT were purchased from Pharmacia. 2,6-Diaminopurine 2′,3′-dideoxyriboside [or 2,6-diamino-9-2,3-dideoxy-β-D-glycero-pentofuranosyl)purine] (ddDAPR) can be prepared by a procedure recently used for efficient conversion of adenosine into its ddAdo derivative (Robins et al, Tetrahedron Lett., 25, […], 1984; Hansske and Robins, Tetrahedron Lett., 26, 4295-4298, 1985).

[2] = tested on: extracellular DHBV; experiment: Southern blot analysis of extracellular virion DNA from culture media of DHBV-infected hepatocytes; type: cell-based, duck hepatitis B virus (DHBV); conditions: 1 µg/ml; culture media pooled from day 16 to day 20
Source text: Southern blot analysis of the extracellular virion DNA was separated on a 1.5% agarose gel. Culture media were pooled from the day 16 to day 20 post-plating. Pelleted virions were digested with pronase and the DNA from the entire sample was applied to each lane. […] RC in Figure 3 indicated relaxed circular DNA.

[3] = cited from earlier work
[4] = tested on: DHBV DNA; experiment: Southern blot analysis of intracellular viral DNA from DHBV-infected hepatocytes; type: cell-based, duck hepatitis B virus (DHBV); conditions: for inhibition at 1 µg/mL: Duck hepatitis B virus, Hepatocyte, similar experiments to the Southern blot of Example 2; for change in DHBV DNA forms in treated hepatocytes: from day 14 to day 20
Method: Southern blot analysis of intracellular viral DNA was separated on a 1.5% agarose gel. The DNA was extracted from DHBV-infected hepatocytes in a 6-cm dish and one fifth of the total DNA was applied onto each lane. […] Drug-treated groups were harvested 14 and 20 days post-plating. The DNA samples from drug-treated hepatocytes were ddA (10 µg/ml), day 14 (lane 5) and day 20 (lane 6), ddA (1 µg/ml), day 14 (lane 7) and day 20 (lane 8), ddG (10 µg/ml), day 14 (lane 9) and day 20 (lane 10), ddG (1 µg/ml), day 14 (lane 11) and day 20 (lane 12). The size markers (Kilobases) were obtained from HindIII digested bacteriophage λ DNA.

[5] = tested on: DHBV; experiment: In vivo treatment of Pekin ducks persistently infected with DHBV, dot blot of sera; conditions: 10 mg/kg twice daily by intramuscular injection, four ducks
Method: Additional tests were conducted to verify the activity in vivo. Four Pekin ducks with proven persistent infection with DHBV were treated with 2,6-diaminopurine 2′,3′-dideoxyriboside (ddDAPR). The animals received 10 mg/kg twice daily by intramuscular injection for two weeks. […] All five animals had evidence of persistent infection with DHBV. […] The untreated duck (number 5) was not bled at this time. […] The control animal (number 5) remained strongly positive after 2 weeks (row c, column 5).

[6] = Conversion of ddDAPR to ddG in whole blood; type: in vitro ADME; conditions: whole blood from a duck, in 5 minutes; read-out: ddDAPR metabolized to ddG
Source text: We have also confirmed that ddDAPR is rapidly metabolized to ddG. This has been done using whole blood from a duck and measuring the rate of conversion of ddDAPR to ddG.

[7] = molecular target: adenosine deaminase (Homo sapiens, UniProt P00813); conditions: Balzarini et al 1987; cited from earlier work
Sequence of adenosine deaminase (P00813 whole entry): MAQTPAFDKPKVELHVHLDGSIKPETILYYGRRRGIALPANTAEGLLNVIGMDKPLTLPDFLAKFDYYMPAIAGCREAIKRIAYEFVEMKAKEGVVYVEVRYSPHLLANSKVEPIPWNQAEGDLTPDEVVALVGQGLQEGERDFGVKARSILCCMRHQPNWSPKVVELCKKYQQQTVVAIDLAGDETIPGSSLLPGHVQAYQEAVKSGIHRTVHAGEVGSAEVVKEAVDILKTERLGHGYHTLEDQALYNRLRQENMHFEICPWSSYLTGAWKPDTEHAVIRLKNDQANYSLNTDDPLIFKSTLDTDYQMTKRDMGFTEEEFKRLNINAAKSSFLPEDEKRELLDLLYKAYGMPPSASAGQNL

[8] = tested on: hepatitis B virus; conditions: cited from earlier work
[9] = tested on: duck hepatocytes; experiment: Toxicity (cell viability) in duck hepatocytes; type: cell-based; conditions: 100 µg/ml over a 10 day exposure
Method: (§1) The toxicity of the purine 2′,3′-dideoxynucleosides has been tested in duck hepatocytes and monkey kidney cells (Vero) to reveal that decreased cell viability with ddA or ddG at 100 µg/ml over a 10 day exposure was not detected. As is known, several lymphocyte cell lines have been examined before for viability and function in the presence of 2′,3′-dideoxynucleosides. These cell lines have not shown decreased viability and function in the presence of 2′,3′-dideoxynucleosides.

[10] = tested on: monkey kidney cells (Vero); experiment: Toxicity (cell viability) in monkey kidney cells; type: cell-based; conditions: 100 µg/ml over a 10 day exposure
Method: as §1

[11] = densitometry scans of the dot hybridization at 20 days

Molecule: Nc1ccn([C@H]2CC[C@@H](CO)O2)c(=O)n1 [ddC, 2′,3′-dideoxycytidine, reference compound]
- PERCENTAGE INHIBITION ([1]; 1 µg/ml, densitometry scans of the dot hybridization at 20 days): little inhibitory effect
- inhibition at 1 µg/mL [1, 11]: 0%
- inhibition at 10 µg/mL [1, 11]: ~57%
- IC50 ([1]; Figure 1): 40 µg/mL (≈ 189 µM)
- production of extracellular virus [2]: fail to inhibit

Molecule: Cc1cn([C@H]2C[C@H](N=[N+]=[N-])[C@@H](CO)O2)c(=O)[nH]c1=O [AZT, 3′-azido-3′deoxythymidine]
- peak plasma levels ([3]; after infusions of 1 mg/kg): 1 µg/mL
- peak plasma levels ([3]; after oral administration of 2 mg/kg): 1 µg/mL

Molecule: Nc1nc(N)c2ncn([C@H]3CC[C@@H](CO)O3)c2n1 [ddDAPR, 2,6-diaminopurine 2′,3′-dideoxyriboside]
- inhibition at 1 µg/mL [1, 11]: 98%
- IC50 ([1]; Figure 1): 0.07 µg/mL (≈ 0.28 µM)
- inhibition at 1 µg/mL ([4]; 1 µg/ml): > 95%
- clearance of the virus from the sera ([5]; after 1 week): completely cleared the virus from their sera
- clearance of the virus from the sera ([5]; after 2 weeks): cleared from the sera
- metabolised at 5 min [6]: > 95%
- deamination by adenosine deaminase [7]: deaminated by adenosine deaminase

Molecule: OC[C@@H]1CC[C@H](n2cnc3c(O)ncnc32)O1 [ddI, 2′,3′-dideoxyinosine]
- inhibition at 1 µg/mL [1, 11]: 96%
- inhibition at 1 µg/mL ([4]; 1 µg/ml): > 95%

Molecule: 2′,3′-dideoxythymidine [ddT, reference compound]
- inhibition of DHBV replication ([1]; dose response curve, day sixteen, Figure 1): no inhibition
- production of extracellular virus [2]: fail to inhibit

Molecule: Nc1ncnc2c1ncn2[C@@H]1O[C@H](CO)[C@@H](O)[C@@H]1O [araA, adenine arabinoside]
- inhibition at 10 µg/mL [1, 11]: ~63%
- toxicity associated with therapy ([8]; chronic hepatitis B patients): bone marrow suppression, neuromuscular pain and neurotoxicity
- treated patients that show some benefit from therapy ([8]; chronic hepatitis B, most open and controlled studies): about 30%

Molecule: Nc1nc2c(ncn2[C@H]2CC[C@@H](CO)O2)c(=O)[nH]1 [ddG, 2′,3′-dideoxyguanosine]
- inhibition at 1 µg/mL [1, 11]: > 99%
- inhibition at 10 µg/mL [1, 11]: > 99%
- IC50 ([1]; Figure 1): 0.07 µg/mL (≈ 0.279 µM)
- change in DHBV DNA forms in treated hepatocytes [4]: decrease in all forms of DHBV DNA
- production of extracellular virus [2]: markedly decreased
- decreased cell viability [9]: not detected
- decreased cell viability [10]: not detected

Molecule: Nc1ncnc2c1ncn2[C@H]1CC[C@@H](CO)O1 [ddA, 2′,3′-dideoxyadenosine]
- inhibition at 1 µg/mL [1, 11]: > 99%
- inhibition at 10 µg/mL [1, 11]: > 99%
- IC50 ([1]; Figure 1): 0.12 µg/mL (≈ 0.51 µM)
- inhibition of the synthesis of all forms of DHBV DNA ([4]; 1 µg/ml, RC, CCC and SS forms): very strong inhibition
- change in DHBV DNA forms in treated hepatocytes [4]: small increase in RC DNA
- production of extracellular virus [2]: markedly decreased
- decreased cell viability [9]: not detected
- decreased cell viability [10]: not detected
